Measured values taken from patent US20090258877A1, “TRIAZOLOTRIAZINES AND TRIAZOLOPYRAZINES AND THEIR USE” (BAYER HEALTHCARE AG, priority 2007, published 2009).

These compounds were tested against T1, GSK3β (Homo sapiens, UniProt P49841) (assay: GSK3β biochemical in vitro assay (coupled pyruvate kinase/lactate dehydrogenase, NADH fluorescence)). Details: 5 nM GSK3β, 50 μM ATP, 40 μM GSM substrate, 30° C., 2 hours.
T1 construct: purchased Upstate 14-306
Experimental: The inhibitory activity of active substances is determined in a biochemical assay. The ingredients required for this purpose are mixed in a black 384-well microtitre plate with transparent base (from Greiner, catalogue number 781092). The requirements in this connection for each well of the 384-well microtitre plate are 5 nM GSK3β (from Upstate, catalogue number 14-306), 40 μM GSK3β substrate GSM (sequence H-RRRPASVPPSPSLSRHS-(pS)-HQRR, from Upstate, catalogue number 2-533), 30 μM nicotinamide adenine dinucleotide NADH (Roche Diagnostics, catalogue number 10107735), 50 μM adenosine triphosphate ATP (from Sigma, catalogue number A7966), 2 mM phosphoenolpyruvate (from Roche, catalogue number 128112), and also about 1 U/ml of pyruvate kinase and about 1 U/ml of lactate dehydrogenase, which are present together in a stock formulation (from Roche, catalogue number 10737291001, suspension with about 450 U/ml of pyruvate kinase activity, about 450 U/ml of lactate dehydrogenase activity in […] ammonium sulphate solution pH 6), where 1 unit pyruvate kinase converts, at pH 7.6 and 37° C., 1 μmol of phosphoenolpyruvate into pyruvate per minute, and where 1 unit of lactate dehydrogenase reduces, at pH 7.5 and 37° C., 1 μmol of pyruvate to lactate per minute. The required reaction buffer in which the biochemical reaction takes place consists of 50 mM Trizma hydrochloride Tris-HCl pH: 7.5 (from Sigma, catalogue number T3253), 5 mM magnesium chloride MgCl2 (from Sigma, catalogue number M8266), 0.2 mM DL-dithiothreitol DTT (from Sigma, catalogue number D9779), 2 mM ethylenediaminetetraacetic acid EDTA (from Sigma, catalogue number E6758), 0.01% Triton X-100 (from Sigma, catalogue number T8787) and 0.05% bovine serum albumin BSA (from Sigma, catalogue number B4287).
Active substances are dissolved in dimethyl sulphoxide DMSO (from Sigma, catalogue number D8418) in a concentration of 10 mM. Active substances are added in serial concentrations of 10 μM, 1 μM, 0.1 μM, 0.01 μM, 0.001 μM, 0.0001 μM, 0.00001 μM, 0.000001 μM to the mixtures of the biochemical reaction. As control, dimethyl sulphoxide is added instead of substance in a final concentration of 0.1%.
The reaction is incubated at 30° C. for 2 hours and then the resulting fluorescence is measured in a Tecan Safire-XFLUOR4 instrument, version V4.50 (serial number 12901300283) with the specifications: measurement mode—fluorescence measured from below, excitation wavelength 340 nm, emission wavelength 465 nm, slit width excitation 5 nm, slit width emission 5 nm, gain mode 120, delay 0 μs, number of light flashes per measurement 3, and an integration time of 40 μs.
The activity of the active substances is calculated in relation to these 0% and 100%.

T1 sequence (P49841 whole entry): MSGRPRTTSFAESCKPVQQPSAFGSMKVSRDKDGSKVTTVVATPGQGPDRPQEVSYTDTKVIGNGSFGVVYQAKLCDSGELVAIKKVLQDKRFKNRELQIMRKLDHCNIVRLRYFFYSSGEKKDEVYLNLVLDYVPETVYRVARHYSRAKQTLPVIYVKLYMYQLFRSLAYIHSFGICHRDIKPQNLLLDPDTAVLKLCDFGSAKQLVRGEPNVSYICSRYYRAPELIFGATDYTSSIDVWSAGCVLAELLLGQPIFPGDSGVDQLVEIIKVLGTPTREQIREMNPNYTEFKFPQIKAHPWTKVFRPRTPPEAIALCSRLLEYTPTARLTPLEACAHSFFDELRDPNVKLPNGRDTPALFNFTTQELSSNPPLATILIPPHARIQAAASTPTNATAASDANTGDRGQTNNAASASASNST

Row | SMILES | IC50
1 | Nc1nc(NCCNc2nc(-c3ccc(Cl)cc3Cl)cn3ncnc23)ccc1C(=O)C(F)(F)F [Example 6, 1-{2-Amino-6-[(2-{[6-(2,4-dichlorophenyl)[1,2,4]triazolo[1,5-a]pyrazin-8-yl]amino}ethyl)amino]-pyridin-3-yl}-2,2,2-trifluoroethanone] | 13 nM
2 | Nc1nc(NCCNc2nc(-c3ccc(Cl)cc3Cl)nn3cnnc23)ccc1C(=O)C(F)(F)F [Example 8, 1-{2-Amino-6-[(2-{[6-(2,4-dichlorophenyl)[1,2,4]triazolo[3,4-f][1,2,4]triazin-8-yl]amino}ethyl)-amino]pyridin-3-yl}-2,2,2-trifluoroethanone] | 9.1 nM
3 | CCC(=O)c1ccc(NC2CCCN(c3nc(-c4ccc(Cl)cc4Cl)nn4cnnc34)C2)nc1N (stereo not shown) [Example 11, 1-[2-Amino-6-({1-[6-(2,4-dichlorophenyl) [1,2,4]triazolo[3,4-f][1,2,4]triazin-8-yl]piperidin-3-yl}-amino)pyridin-3-yl]propan-1-one] | 4.4 nM
4 | N#Cc1sc(NCCNc2nc(-c3ccc(Cl)cc3Cl)cn3ncnc23)nc1N [Example 15, 4-Amino-2-[(2-{[6-(2,4-dichlorophenyl)[1,2,4]triazolo[1,5-a]pyrazin-8-yl]amino}ethyl)amino]-1,3-thiazole-5-carbonitrile] | 3.2 nM
